Assay results from patent US11814376B2, “Hepatitis b core protein modulators” (Assembly Biosciences, Inc., priority 2015, dated 2023).
Where two headings read alike, the source gives them in different places.

Key:
[1] = system: HBV viral load in AD38 cells; assay: Viral load production in AD38 cells, quantitative PCR of the core sequence in supernatant; type: cell-based; conditions: for activity at 10 µM: Hepatitis B virus, 144 h, read-out: AD38 Viral Load (%) (VL with cmpd/VL in DMSO control) at 10 μM
AD38 cells = assay: Viability of AD38 cells (Promega CellTiter-Glo); type: cell-based; conditions: 10 μM compound, 6 days, CellTiter-Glo luminescence normalized to DMSO control (100%)
Summary of the method: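 After 6 days of compound exposure at 37° C (compound added as 10× solution in 10% DMSO; 50,000 cells/well, collagen-coated), medium was replaced with tetracycline-free DMEM/F12, 2% FBS, 1% DMSO. CellTiter-Glo luminescence was then recorded and normalized to DMSO-treated wells as 100% viability.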

[2] = 10 μM compound, 6 days at 37° C., supernatant qPCR, relative to DMSO control

Structure (SMILES): CC(C)N(C)CCCCc1ccc(-c2ncc(CNC(=O)c3ccc4c(c3)NC(=O)c3ccccc3S4(=O)=O)s2)cc1 [compound 11093]
- activity at 10 µM [1, 2]: 4.6%
- AD38 Viability Normalized Result (cmpd/DMSO %) at 10 μM (AD38 cells): 102%

Structure (SMILES): CN(CCCCc1ccc(-c2ncc(CNC(=O)c3ccc4c(c3)NC(=O)c3ccccc3S4(=O)=O)s2)cc1)C1CC1 [compound 11094]
- activity at 10 µM [1, 2]: 0.6%
- AD38 Viability Normalized Result (cmpd/DMSO %) at 10 μM (AD38 cells): 94%

Structure (SMILES): CN(C)CCCCc1cnn(-c2ncc(CNC(=O)c3ccc4c(c3)NC(=O)c3ccccc3S4(=O)=O)s2)c1 [compound 11099]
- activity at 10 µM [1, 2]: 3.9%
- AD38 Viability Normalized Result (cmpd/DMSO %) at 10 μM (AD38 cells): 90%

Structure (SMILES): CCN(CC)CCCCc1cnn(-c2ncc(CNC(=O)c3ccc4c(c3)NC(=O)c3ccccc3S4(=O)=O)s2)c1 [compound 11100]
- activity at 10 µM [1, 2]: 6.8%
- AD38 Viability Normalized Result (cmpd/DMSO %) at 10 μM (AD38 cells): 102%

Structure (SMILES): CCN(CC)CCC(C)Oc1ccc(-c2ncc(CNC(=O)c3ccc4c(c3)NC(=O)c3ccccc3S4(=O)=O)s2)cc1 (centres unmarked) [compound 11101]
- activity at 10 µM [1, 2]: 1.9%
- AD38 Viability Normalized Result (cmpd/DMSO %) at 10 μM (AD38 cells): 85%

Structure (SMILES): O=C(NCc1cnc(-c2ccc(OCCCNCC(F)(F)F)cc2)s1)c1ccc2c(c1)NC(=O)c1ccccc1S2(=O)=O [compound 11102]
- activity at 10 µM [1, 2]: 0.5%
- AD38 Viability Normalized Result (cmpd/DMSO %) at 10 μM (AD38 cells): 93%

Structure (SMILES): Cl.O=C(NCc1cnc(-c2ccc(O[C@@H]3CCNC3)cc2)s1)c1ccc2c(c1)NC(=O)c1ccccc1S2(=O)=O [compound 11103, (R)-11-oxo-N-((2-(4-(pyrrolidin-3-yloxy)phenyl)thiazol-5-yl)methyl)-10, 11-dihydrodibenzo [b, f] [1, 4] thiazepine-8-carboxamide 5,5-dioxide hydrochloride]
- activity at 10 µM [1, 2]: 2.5%
- AD38 Viability Normalized Result (cmpd/DMSO %) at 10 μM (AD38 cells): 102%

Structure (SMILES): Cl.O=C(NCc1cnc(-c2ccc(OC[C@H]3CCCN3)cc2)s1)c1ccc2c(c1)NC(=O)c1ccccc1S2(=O)=O [compound 11104, (R)-11-oxo-N-((2-(4-(pyrrolidin-2-ylmethoxy)phenyl)thiazol-5-yl)methyl)-10, 11-dihydrodibenzo [b, f] [1, 4] thiazepine-8-carboxamide 5,5-dioxide hydrochloride]
- activity at 10 µM [1, 2]: 9.4%
- AD38 Viability Normalized Result (cmpd/DMSO %) at 10 μM (AD38 cells): 97%

Structure (SMILES): O=C(NCc1cnc(-c2ccc(OCCCN3CCC3)cc2)s1)c1ccc2c(c1)NC(=O)c1ccccc1S2(=O)=O [compound 11105]
- activity at 10 µM [1, 2]: 1.6%
- AD38 Viability Normalized Result (cmpd/DMSO %) at 10 μM (AD38 cells): 95%

Structure (SMILES): O=C(NCc1cnc(-c2ccc(OCCCN3CCC[C@H]3C(=O)O)cc2)s1)c1ccc2c(c1)NC(=O)c1ccccc1S2(=O)=O [compound 11106, (3-(4-(5-((5,5-dioxido-11-oxo-10, 11-dihydrodibenzo [b, f] [1, 4]thiazepine-8-carboxamido)methyl)thiazol-2-yl)phenoxy)propyl)-L-proline]
- activity at 10 µM [1, 2]: 3.3%
- AD38 Viability Normalized Result (cmpd/DMSO %) at 10 μM (AD38 cells): 97%

Structure (SMILES): O=C(NCc1cnc(-c2ccc(OCCCN3CCC(C(=O)O)C3)cc2)s1)c1ccc2c(c1)NC(=O)c1ccccc1S2(=O)=O (centres unmarked) [compound 11107, 1-(3-(4-(5-((5,5-dioxido-11-oxo-10, 11-dihydrodibenzo [b, f] [1, 4]thiazepine-8-carboxamido)methyl)thiazol-2-yl)phenoxy)propyl) pyrrolidine-3-carboxylic acid]
- activity at 10 µM [1, 2]: 6.4%
- AD38 Viability Normalized Result (cmpd/DMSO %) at 10 μM (AD38 cells): 96%

Structure (SMILES): O=C(NCc1cnc(-c2ccc(OCCC[N+]34CCC(CC3)CC4)cc2)s1)c1ccc2c(c1)NC(=O)c1ccccc1S2(=O)=O.[Br-] [compound 11108, 1-(3-(4-(5-((5,5-dioxido-11-oxo-10, 11-dihydrodibenzo [b, f] [1, 4]thiazepine-8-carboxamido)methyl)thiazol-2-yl)phenoxy)propyl) quinuclidin-1-ium bromide]
- activity at 10 µM [1]: 11.2%
- AD38 Viability Normalized Result (cmpd/DMSO %) at 10 μM (AD38 cells): 95%

Structure (SMILES): CN(C)CC1(COc2ccc(-c3ncc(CNC(=O)c4ccc5c(c4)NC(=O)c4ccccc4S5(=O)=O)s3)cc2)CC1 [compound 11112]
- activity at 10 µM [1, 2]: 4%
- AD38 Viability Normalized Result (cmpd/DMSO %) at 10 μM (AD38 cells): 100%

Structure (SMILES): CN(C)CC1(COc2ccc(-c3ncc(CNC(=O)c4ccc5c(c4)NC(=O)c4ccccc4S5(=O)=O)s3)cc2)CCC1 [compound 11113]
- activity at 10 µM [1, 2]: 4.9%
- AD38 Viability Normalized Result (cmpd/DMSO %) at 10 μM (AD38 cells): 92%

Structure (SMILES): CCOC(=O)c1cnn(-c2ncc(CNC(=O)c3ccc4c(c3)NC(=O)c3ccccc3S4(=O)=O)s2)c1 [compound 11116]
- activity at 10 µM [1, 2]: 0.9%
- AD38 Viability Normalized Result (cmpd/DMSO %) at 10 μM (AD38 cells): 97%

Structure (SMILES): CCOC(=O)/C=C/c1cnn(-c2ncc(CNC(=O)c3ccc4c(c3)NC(=O)c3ccccc3S4(=O)=O)s2)c1 [compound 11118]
- activity at 10 µM [1, 2]: 1.9%
- AD38 Viability Normalized Result (cmpd/DMSO %) at 10 μM (AD38 cells): 95%

Structure (SMILES): CN1CCC[C@@H]1COc1ccc(-c2ncc(CNC(=O)c3ccc4c(c3)NC(=O)c3ccccc3S4(=O)=O)s2)cc1 [compound 11131, (R)—N-((2-(4-((1-methylpyrrolidin-2-yl)methoxy)phenyl)thiazol-5-yl)methyl)-11-oxo-10,11-dihydrodibenzo [b, f] [1, 4] thiazepine-8-carboxamide 5,5-dioxide]
- activity at 10 µM [1, 2]: 2%
- AD38 Viability Normalized Result (cmpd/DMSO %) at 10 μM (AD38 cells): 88%

Structure (SMILES): CN1CC[C@H](Oc2ccc(-c3ncc(CNC(=O)c4ccc5c(c4)NC(=O)c4ccccc4S5(=O)=O)s3)cc2)C1 [compound 11134, (S)—N-((2-(4-((1-methylpyrrolidin-3-yl)oxy)phenyl)thiazol-5-yl)methyl)-11-oxo-10, 11-dihydrodibenzo [b, f] [1, 4] thiazepine-8-carboxamide 5,5-dioxide]
- activity at 10 µM [1, 2]: 1.4%
- AD38 Viability Normalized Result (cmpd/DMSO %) at 10 μM (AD38 cells): 90%

Structure (SMILES): CN1CCC[C@H]1COc1ccc(-c2ncc(CNC(=O)c3ccc4c(c3)NC(=O)c3ccccc3S4(=O)=O)s2)cc1 [compound 11135, (S)—N-((2-(4-((1-methylpyrrolidin-2-yl)methoxy)phenyl)thiazol-5-yl)methyl)-11-oxo-10,11-dihydrodibenzo [b, f] [1, 4] thiazepine-8-carboxamide 5,5-dioxide]
- activity at 10 µM [1, 2]: 1.8%
- AD38 Viability Normalized Result (cmpd/DMSO %) at 10 μM (AD38 cells): 91%

Structure (SMILES): O=C(NCc1cnc(-c2ccc(OCC3CCNCC3)cc2)s1)c1ccc2c(c1)NC(=O)c1ccccc1S2(=O)=O [compound 11137, 11-oxo-N-((2-(4-(piperidin-4-ylmethoxy)phenyl)thiazol-5-yl)methyl)-10, 11-dihydrodibenzo [b, f] [1, 4] thiazepine-8-carboxamide 5,5-dioxide]
- activity at 10 µM [1, 2]: 3.6%
- AD38 Viability Normalized Result (cmpd/DMSO %) at 10 μM (AD38 cells): 96%

Structure (SMILES): CN1CCC(COc2ccc(-c3ncc(CNC(=O)c4ccc5c(c4)NC(=O)c4ccccc4S5(=O)=O)s3)cc2)CC1.Cl [compound 11138, N-((2-(4-((1-methylpiperidin-4-yl)methoxy)phenyl)thiazol-5-yl)methyl)-11-oxo-10, 11-dihydrodibenzo [b, f] [1, 4] thiazepine-8-carboxamide 5,5-dioxide hydrochloride]
- activity at 10 µM [1, 2]: 1%
- AD38 Viability Normalized Result (cmpd/DMSO %) at 10 μM (AD38 cells): 96%

Structure (SMILES): Cl.O=C(NCc1cnc(-c2ccc(OC[C@H]3CCNC3)cc2)s1)c1ccc2c(c1)NC(=O)c1ccccc1S2(=O)=O [compound 11139, (S)-11-oxo-N-((2-(4-(pyrrolidin-3-ylmethoxy)phenyl)thiazol-5-yl)methyl)-10, 11-dihydrodibenzo [b, f] [1, 4] thiazepine-8-carboxamide 5,5-dioxide hydrochloride]
- activity at 10 µM [1, 2]: 5.5%
- AD38 Viability Normalized Result (cmpd/DMSO %) at 10 μM (AD38 cells): 104%

Structure (SMILES): O=C(NCc1cnc(-c2ccc(OC[C@@H]3CCNC3)cc2)s1)c1ccc2c(c1)NC(=O)c1ccccc1S2(=O)=O [compound 11140, (R)-11-oxo-N-((2-(4-(pyrrolidin-3-ylmethoxy)phenyl)thiazol-5-yl)methyl)-10, 11-dihydrodibenzo [b, f] [1, 4] thiazepine-8-carboxamide 5,5-dioxide]
- activity at 10 µM [1, 2]: 5.5%
- AD38 Viability Normalized Result (cmpd/DMSO %) at 10 μM (AD38 cells): 99%

Structure (SMILES): O=C(NCc1cnc(-c2ccc(OCCCN3CCC3)cc2)s1)c1ccc2c(c1)NC(=O)c1ccccc1S2(=O)=O [compound 11142]
- AD38 Viral Load (%) (VL with cmpd/VL in DMSO control) at 10 μM [1, 2]: 0.8%
- AD38 Viability Normalized Result (cmpd/DMSO %) at 10 μM (AD38 cells): 87%

Structure (SMILES): Cc1c(C(=O)NCc2cnc(-n3cc(F)cn3)s2)ccc2c1NC(=O)c1ccccc1S2(=O)=O [compound 11148]
- activity at 10 µM [1, 2]: 0.3%
- AD38 Viability Normalized Result (cmpd/DMSO %) at 10 μM (AD38 cells): 98%

Structure (SMILES): Cc1c(C(=O)NCc2cnc(-n3cc(C(F)(F)F)cn3)s2)ccc2c1NC(=O)c1ccccc1S2(=O)=O [compound 11149]
- activity at 10 µM [1, 2]: 0.2%
- AD38 Viability Normalized Result (cmpd/DMSO %) at 10 μM (AD38 cells): 100%

Structure (SMILES): Cc1c(C(=O)NCc2cnc(-c3ccc(F)cn3)s2)ccc2c1NC(=O)c1ccccc1S2(=O)=O [compound 11150]
- activity at 10 µM [1, 2]: 0.4%
- AD38 Viability Normalized Result (cmpd/DMSO %) at 10 μM (AD38 cells): 100%

Structure (SMILES): Cc1c(C(=O)NCc2cnc(-c3cc[nH]n3)s2)ccc2c1NC(=O)c1ccccc1S2(=O)=O [compound 11152]
- activity at 10 µM [1, 2]: 1.6%
- AD38 Viability Normalized Result (cmpd/DMSO %) at 10 μM (AD38 cells): 96%
